# Results reported in ChEMBL document CHEMBL1201862, “PubChem BioAssay data set” (2004).
#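 Method: 48-hour compound exposure of cells in 96-well plates, five concentrations, linear interpolation of endpoints. At the GI50, growth is halved.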 The source made the active and inactive calls. Rule as the data show it: active = GI50 up to about 1.1 µM and inactive = higher.
# Key:
# Test in all cases: DTP human tumour cell line panel, 48 h
# Malme-3M = system: Malme-3M
# IGROV-1 = system: IGROV-1
# HT-29 = system: HT-29
# Hs-578T = system: Hs-578T
# MDA-MB-435 = system: MDA-MB-435
# KM12 = system: KM12
# T47D = system: T47D
# OVCAR-5 = system: OVCAR-5
# PC-3 = system: PC-3
# MDA-MB-231 = system: MDA-MB-231
# DU-145 = system: DU-145
# M14 = system: M14
# SF-539 = system: SF-539
# HOP-92 = system: HOP-92
# K562 = system: K562
# SF-295 = system: SF-295
# COLO 205 = system: COLO 205
# SK-MEL-2 = system: SK-MEL-2
# HCC 2998 = system: HCC 2998
# A498 = system: A498
# OVCAR-8 = system: OVCAR-8
# MOLT-4 = system: MOLT-4
# NCI-H522 = system: NCI-H522
# ACHN = system: ACHN
# UACC-257 = system: UACC-257
# 786-0 = system: 786-0
# SW-620 = system: SW-620
# SK-MEL-5 = system: SK-MEL-5
# SR = system: SR
# OVCAR-3 = system: OVCAR-3
# SF-268 = system: SF-268
# MDA-N = system: MDA-N
# HCT-15 = system: HCT-15
# HOP-62 = system: HOP-62
# NCI-H226 = system: NCI-H226
# NCI/ADR-RES = system: NCI/ADR-RES
# SK-MEL-28 = system: SK-MEL-28
# CAKI-1 = system: CAKI-1
# NCI-H23 = system: NCI-H23
# HCT-116 = system: HCT-116
# SN12C = system: SN12C
# SNB-19 = system: SNB-19
# RXF 393 = system: RXF 393
# TK-10 = system: TK-10
# LOX IMVI = system: LOX IMVI
# RPMI-8226 = system: RPMI-8226
# EKVX = system: EKVX
# NCI-H460 = system: NCI-H460
# UO-31 = system: UO-31
# CCRF-CEM = system: CCRF-CEM
# A549 = system: A549
# MCF7 = system: MCF7
# U-251 = system: U-251
# HL-60 = system: HL-60
# UACC-62 = system: UACC-62
# OVCAR-4 = system: OVCAR-4
# SNB-75 = system: SNB-75
# SK-OV-3 = system: SK-OV-3
structure (smiles),measurement,setting,value
Cn1cnc(N2CCCC2)c(C#N)c1=S,GI50,Malme-3M,> 100 µM (inactive)
same,GI50,IGROV-1,> 100 µM (inactive)
same,GI50,HT-29,> 100 µM (inactive)
same,GI50,Hs-578T,> 100 µM (inactive)
same,GI50,MDA-MB-435,> 100 µM (inactive)
same,GI50,KM12,> 100 µM (inactive)
same,GI50,T47D,> 100 µM (inactive)
same,GI50,OVCAR-5,> 100 µM (inactive)
same,GI50,PC-3,> 100 µM (inactive)
same,GI50,MDA-MB-231,> 100 µM (inactive)
same,GI50,DU-145,> 100 µM (inactive)
same,GI50,M14,> 100 µM (inactive)
same,GI50,SF-539,> 100 µM (inactive)
same,GI50,HOP-92,76.2 µM (inactive)
same,GI50,K562,> 100 µM (inactive)
same,GI50,SF-295,> 100 µM (inactive)
same,GI50,COLO 205,> 100 µM (inactive)
same,GI50,SK-MEL-2,> 100 µM (inactive)
same,GI50,HCC 2998,> 100 µM (inactive)
same,GI50,A498,> 100 µM (inactive)
same,GI50,OVCAR-8,> 100 µM (inactive)
same,GI50,MOLT-4,> 100 µM (inactive)
same,GI50,NCI-H522,> 100 µM (inactive)
same,GI50,ACHN,> 100 µM (inactive)
same,GI50,UACC-257,> 100 µM (inactive)
same,GI50,786-0,> 100 µM (inactive)
same,GI50,SW-620,> 100 µM (inactive)
same,GI50,SK-MEL-5,> 100 µM (inactive)
same,GI50,SR,> 100 µM (inactive)
same,GI50,OVCAR-3,> 100 µM (inactive)
same,GI50,SF-268,> 100 µM (inactive)
same,GI50,MDA-N,> 100 µM (inactive)
same,GI50,HCT-15,> 100 µM
same,GI50,HOP-62,> 100 µM (inactive)
same,GI50,NCI-H226,> 100 µM (inactive)
same,GI50,NCI/ADR-RES,> 100 µM (inactive)
same,GI50,SK-MEL-28,> 100 µM (inactive)
same,GI50,CAKI-1,35.9 µM (inactive)
same,GI50,NCI-H23,> 100 µM (inactive)
same,GI50,HCT-116,> 100 µM (inactive)
same,GI50,SN12C,> 100 µM (inactive)
same,GI50,SNB-19,> 100 µM (inactive)
same,GI50,RXF 393,> 100 µM (inactive)
same,GI50,TK-10,> 100 µM (inactive)
same,GI50,LOX IMVI,> 100 µM (inactive)
same,GI50,RPMI-8226,> 100 µM (inactive)
same,GI50,EKVX,94.4 µM (inactive)
same,GI50,NCI-H460,> 100 µM (inactive)
same,GI50,UO-31,23.2 µM (inactive)
same,GI50,CCRF-CEM,> 100 µM (inactive)
same,GI50,A549,> 100 µM (inactive)
same,GI50,MCF7,> 100 µM (inactive)
same,GI50,U-251,> 100 µM (inactive)
same,GI50,HL-60,> 100 µM (inactive)
same,GI50,UACC-62,> 100 µM (inactive)
same,GI50,OVCAR-4,> 100 µM (inactive)
CC(=O)O[C@H]1CN(S(=O)(=O)c2ccc(C)cc2)C[C@@H]1C1CCCCC1,GI50,IGROV-1,18.8 µM (inactive)
same,GI50,HT-29,24.4 µM (inactive)
same,GI50,Hs-578T,18.9 µM (inactive)
same,GI50,MDA-MB-435,27.9 µM (inactive)
same,GI50,KM12,17.9 µM (inactive)
same,GI50,T47D,40.6 µM (inactive)
same,GI50,OVCAR-5,39 µM (inactive)
same,GI50,PC-3,20.1 µM (inactive)
same,GI50,MDA-MB-231,51.4 µM (inactive)
same,GI50,DU-145,32.9 µM (inactive)
same,GI50,M14,17.7 µM (inactive)
same,GI50,SF-539,< 0.01 µM (active)
same,GI50,HOP-92,23.2 µM (inactive)
same,GI50,K562,32.9 µM (inactive)
same,GI50,SF-295,14.4 µM (inactive)
same,GI50,COLO 205,46.8 µM (inactive)
same,GI50,SK-MEL-2,18.7 µM (inactive)
same,GI50,HCC 2998,45.6 µM (inactive)
same,GI50,A498,> 100 µM (inactive)
same,GI50,OVCAR-8,22.7 µM (inactive)
same,GI50,MOLT-4,28.5 µM (inactive)
same,GI50,ACHN,36.9 µM (inactive)
same,GI50,UACC-257,18 µM (inactive)
same,GI50,SW-620,26.1 µM (inactive)
same,GI50,SK-MEL-5,10.6 µM (inactive)
same,GI50,SNB-75,24.9 µM (inactive)
same,GI50,SR,18.6 µM (inactive)
same,GI50,OVCAR-3,18 µM (inactive)
same,GI50,SF-268,26.7 µM (inactive)
same,GI50,MDA-N,25.5 µM (inactive)
same,GI50,HCT-15,28.4 µM
same,GI50,HOP-62,35.8 µM (inactive)
same,GI50,SK-OV-3,43.7 µM (inactive)
same,GI50,NCI-H226,16.7 µM (inactive)
same,GI50,NCI/ADR-RES,19.5 µM (inactive)
same,GI50,SK-MEL-28,20.5 µM (inactive)
same,GI50,CAKI-1,45.8 µM (inactive)
same,GI50,NCI-H23,36.3 µM (inactive)
same,GI50,SNB-19,55.3 µM (inactive)
same,GI50,TK-10,21.9 µM (inactive)
same,GI50,LOX IMVI,21.6 µM (inactive)
same,GI50,RPMI-8226,33.1 µM (inactive)
same,GI50,EKVX,17 µM (inactive)
same,GI50,NCI-H460,31.7 µM (inactive)
same,GI50,UO-31,38.2 µM (inactive)
same,GI50,CCRF-CEM,37.5 µM (inactive)
same,GI50,MCF7,20.8 µM (inactive)
same,GI50,U-251,29.7 µM (inactive)
same,GI50,UACC-62,22.6 µM (inactive)
same,GI50,OVCAR-4,31.9 µM (inactive)
CC1(C)N=c2c(ncn2Cc2ccccc2)=C(C(N)=O)N1,GI50,Malme-3M,> 100 µM (inactive)
same,GI50,IGROV-1,> 100 µM (inactive)
same,GI50,HT-29,> 100 µM (inactive)
same,GI50,Hs-578T,> 100 µM (inactive)
same,GI50,MDA-MB-435,> 100 µM (inactive)
same,GI50,KM12,> 100 µM (inactive)
same,GI50,T47D,> 100 µM (inactive)
same,GI50,OVCAR-5,> 100 µM (inactive)
same,GI50,PC-3,> 100 µM (inactive)
same,GI50,MDA-MB-231,> 100 µM (inactive)
same,GI50,DU-145,> 100 µM (inactive)
same,GI50,M14,> 100 µM (inactive)
same,GI50,SF-539,> 100 µM (inactive)
same,GI50,HOP-92,> 100 µM (inactive)
same,GI50,K562,> 100 µM (inactive)
same,GI50,SF-295,> 100 µM (inactive)
same,GI50,COLO 205,> 100 µM (inactive)
same,GI50,SK-MEL-2,> 100 µM (inactive)
same,GI50,HCC 2998,> 100 µM (inactive)
same,GI50,A498,> 100 µM (inactive)
same,GI50,OVCAR-8,> 100 µM (inactive)
same,GI50,NCI-H522,> 100 µM (inactive)
same,GI50,ACHN,94.4 µM (inactive)
same,GI50,UACC-257,> 100 µM (inactive)
same,GI50,786-0,> 100 µM (inactive)
same,GI50,SW-620,> 100 µM (inactive)
same,GI50,SK-MEL-5,> 100 µM (inactive)
same,GI50,SNB-75,> 100 µM (inactive)
same,GI50,SR,> 100 µM (inactive)
same,GI50,OVCAR-3,> 100 µM (inactive)
same,GI50,SF-268,> 100 µM (inactive)
same,GI50,MDA-N,> 100 µM (inactive)
same,GI50,HCT-15,> 100 µM
same,GI50,HOP-62,> 100 µM (inactive)
same,GI50,SK-OV-3,> 100 µM (inactive)
same,GI50,NCI-H226,> 100 µM (inactive)
same,GI50,NCI/ADR-RES,> 100 µM (inactive)
same,GI50,SK-MEL-28,> 100 µM (inactive)
same,GI50,CAKI-1,> 100 µM (inactive)
same,GI50,NCI-H23,> 100 µM (inactive)
same,GI50,HCT-116,> 100 µM (inactive)
same,GI50,SN12C,> 100 µM (inactive)
same,GI50,SNB-19,> 100 µM (inactive)
same,GI50,RXF 393,> 100 µM (inactive)
same,GI50,TK-10,> 100 µM (inactive)
same,GI50,LOX IMVI,> 100 µM (inactive)
same,GI50,RPMI-8226,> 100 µM (inactive)
same,GI50,EKVX,> 100 µM (inactive)
same,GI50,NCI-H460,> 100 µM (inactive)
same,GI50,CCRF-CEM,> 100 µM (inactive)
same,GI50,A549,> 100 µM (inactive)
same,GI50,MCF7,> 100 µM (inactive)
same,GI50,U-251,> 100 µM (inactive)
same,GI50,HL-60,> 100 µM (inactive)
same,GI50,UACC-62,> 100 µM (inactive)
same,GI50,OVCAR-4,> 100 µM (inactive)
